How the values were obtained:
[1] = biological target: Androgen receptor (Homo sapiens) (UniProt P10275); assay: Selectivity interaction (Eurofins CEREP Diversity Profile (receptors and ion channels)) EUB0000279b AR; details: at 10 µM
[2] = biological target: Ribosomal protein S6 kinase beta-1 (Homo sapiens, UniProt P23443); assay: Selectivity interaction (Kinase panel (literature)) EUB0001199aCl RPS6KB1; details: at 1 µM
[3] = biological target: Mitogen-activated protein kinase 9 (Homo sapiens, UniProt P45984); assay: Selectivity interaction (KinomeScan (DiscoverX)) EUB0000607a MAPK9; details: at 10 µM
Sequence of Mitogen-activated protein kinase 9 (P45984 whole entry, looked up): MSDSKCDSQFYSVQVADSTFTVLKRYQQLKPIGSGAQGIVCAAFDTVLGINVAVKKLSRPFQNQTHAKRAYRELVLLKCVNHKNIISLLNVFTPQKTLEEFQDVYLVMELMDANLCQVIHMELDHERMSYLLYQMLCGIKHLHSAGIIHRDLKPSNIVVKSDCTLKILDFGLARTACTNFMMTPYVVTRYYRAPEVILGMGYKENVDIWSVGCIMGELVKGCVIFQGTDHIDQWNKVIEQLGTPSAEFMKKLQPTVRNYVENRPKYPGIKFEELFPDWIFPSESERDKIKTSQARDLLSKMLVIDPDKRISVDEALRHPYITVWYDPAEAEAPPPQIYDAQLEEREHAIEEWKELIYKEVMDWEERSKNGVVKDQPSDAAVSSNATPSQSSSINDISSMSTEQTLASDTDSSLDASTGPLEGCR

[4] = biological target: T1, Cytoplasmic tyrosine-protein kinase BMX (Homo sapiens) (UniProt P51813); assay: Selectivity interaction (KinomeScan (DiscoverX)) EUB0000607a BMX; details: at 10 µM
T1 sequence (whole entry): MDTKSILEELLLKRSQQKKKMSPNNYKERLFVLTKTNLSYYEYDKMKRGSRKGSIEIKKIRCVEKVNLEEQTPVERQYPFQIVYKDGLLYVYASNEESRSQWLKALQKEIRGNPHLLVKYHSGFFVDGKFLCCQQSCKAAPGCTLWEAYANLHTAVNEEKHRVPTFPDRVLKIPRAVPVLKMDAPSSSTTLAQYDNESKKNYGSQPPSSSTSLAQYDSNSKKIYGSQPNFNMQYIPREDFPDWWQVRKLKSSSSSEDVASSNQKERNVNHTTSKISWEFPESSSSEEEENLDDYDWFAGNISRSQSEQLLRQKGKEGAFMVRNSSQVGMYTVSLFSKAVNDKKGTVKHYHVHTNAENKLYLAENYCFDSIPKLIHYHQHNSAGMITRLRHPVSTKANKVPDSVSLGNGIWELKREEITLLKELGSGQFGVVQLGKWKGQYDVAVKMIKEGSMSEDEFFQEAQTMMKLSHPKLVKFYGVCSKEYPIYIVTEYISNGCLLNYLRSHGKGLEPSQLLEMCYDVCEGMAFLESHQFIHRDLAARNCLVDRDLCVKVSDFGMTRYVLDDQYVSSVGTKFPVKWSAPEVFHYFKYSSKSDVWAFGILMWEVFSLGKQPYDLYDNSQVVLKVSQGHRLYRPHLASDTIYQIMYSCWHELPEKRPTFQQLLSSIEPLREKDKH

[5] = biological target: T2, Serine/threonine-protein kinase D1 (Homo sapiens) (UniProt Q15139); details: at 10 µM
T2 sequence (whole entry): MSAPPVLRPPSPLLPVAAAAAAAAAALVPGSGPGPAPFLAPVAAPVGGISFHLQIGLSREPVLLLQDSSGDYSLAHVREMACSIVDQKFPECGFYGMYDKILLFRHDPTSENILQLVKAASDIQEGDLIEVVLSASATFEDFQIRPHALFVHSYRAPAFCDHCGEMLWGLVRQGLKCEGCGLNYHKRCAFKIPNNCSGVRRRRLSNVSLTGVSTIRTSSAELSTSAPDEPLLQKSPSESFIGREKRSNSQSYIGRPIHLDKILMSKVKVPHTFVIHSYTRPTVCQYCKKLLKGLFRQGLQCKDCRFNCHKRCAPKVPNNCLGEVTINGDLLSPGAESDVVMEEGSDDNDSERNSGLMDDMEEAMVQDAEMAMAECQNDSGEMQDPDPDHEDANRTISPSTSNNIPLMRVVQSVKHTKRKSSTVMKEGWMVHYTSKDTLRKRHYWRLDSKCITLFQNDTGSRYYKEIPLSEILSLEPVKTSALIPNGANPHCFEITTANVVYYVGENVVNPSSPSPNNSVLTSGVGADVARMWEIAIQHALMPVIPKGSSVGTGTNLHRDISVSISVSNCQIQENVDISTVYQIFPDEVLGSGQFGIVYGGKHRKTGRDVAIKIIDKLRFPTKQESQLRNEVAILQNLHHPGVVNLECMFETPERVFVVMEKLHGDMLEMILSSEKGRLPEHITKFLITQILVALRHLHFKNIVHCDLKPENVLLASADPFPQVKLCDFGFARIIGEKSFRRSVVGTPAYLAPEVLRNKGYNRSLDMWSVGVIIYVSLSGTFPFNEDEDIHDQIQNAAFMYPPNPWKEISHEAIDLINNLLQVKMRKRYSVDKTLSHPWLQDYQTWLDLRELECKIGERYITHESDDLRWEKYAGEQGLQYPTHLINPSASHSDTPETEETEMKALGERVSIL

[6] = biological target: Serine/threonine-protein kinase WNK1 (Homo sapiens) (UniProt Q9H4A3); assay: Selectivity interaction (Kinase panel (KiNativ target engagement assay in Jurkat cells)) EUB0001635a WNK1; format: cell-based; details: at 1 µM
[7] = biological target: T2, Serine/threonine-protein kinase D1 (Homo sapiens); details: at 10 µM; remark: listed apart in the source
[8] = biological target: T3, Histone-lysine N-methyltransferase SETD7 (Homo sapiens) (UniProt Q8WTS6); assay: Selectivity interaction (Transferase panel (protein, RNA, and DNA methyltransferases. and EP300 (acetyltransferase))) EUB0000270b SETD7
T3 sequence (whole entry): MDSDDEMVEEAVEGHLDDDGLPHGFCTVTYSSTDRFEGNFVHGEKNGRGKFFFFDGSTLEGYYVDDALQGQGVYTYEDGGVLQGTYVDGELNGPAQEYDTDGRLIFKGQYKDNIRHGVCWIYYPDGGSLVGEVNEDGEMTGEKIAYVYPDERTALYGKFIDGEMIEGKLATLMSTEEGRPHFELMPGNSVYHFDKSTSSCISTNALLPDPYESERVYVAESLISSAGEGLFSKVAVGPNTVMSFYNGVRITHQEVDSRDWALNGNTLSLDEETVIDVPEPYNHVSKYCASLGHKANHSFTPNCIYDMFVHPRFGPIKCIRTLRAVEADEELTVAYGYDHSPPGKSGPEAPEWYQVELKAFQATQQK

[9] = system: Epidermal growth factor receptor (Homo sapiens), P00533 [UNDEFINED MUTATION]; assay: Selectivity interaction (KinomeScan (DiscoverX)) EUB0000229b EGFR; details: at 1 µM
Sequence of Epidermal growth factor receptor (Homo sapiens), P00533 [UNDEFINED MUTATION] (P00533 whole entry, looked up, change not shown): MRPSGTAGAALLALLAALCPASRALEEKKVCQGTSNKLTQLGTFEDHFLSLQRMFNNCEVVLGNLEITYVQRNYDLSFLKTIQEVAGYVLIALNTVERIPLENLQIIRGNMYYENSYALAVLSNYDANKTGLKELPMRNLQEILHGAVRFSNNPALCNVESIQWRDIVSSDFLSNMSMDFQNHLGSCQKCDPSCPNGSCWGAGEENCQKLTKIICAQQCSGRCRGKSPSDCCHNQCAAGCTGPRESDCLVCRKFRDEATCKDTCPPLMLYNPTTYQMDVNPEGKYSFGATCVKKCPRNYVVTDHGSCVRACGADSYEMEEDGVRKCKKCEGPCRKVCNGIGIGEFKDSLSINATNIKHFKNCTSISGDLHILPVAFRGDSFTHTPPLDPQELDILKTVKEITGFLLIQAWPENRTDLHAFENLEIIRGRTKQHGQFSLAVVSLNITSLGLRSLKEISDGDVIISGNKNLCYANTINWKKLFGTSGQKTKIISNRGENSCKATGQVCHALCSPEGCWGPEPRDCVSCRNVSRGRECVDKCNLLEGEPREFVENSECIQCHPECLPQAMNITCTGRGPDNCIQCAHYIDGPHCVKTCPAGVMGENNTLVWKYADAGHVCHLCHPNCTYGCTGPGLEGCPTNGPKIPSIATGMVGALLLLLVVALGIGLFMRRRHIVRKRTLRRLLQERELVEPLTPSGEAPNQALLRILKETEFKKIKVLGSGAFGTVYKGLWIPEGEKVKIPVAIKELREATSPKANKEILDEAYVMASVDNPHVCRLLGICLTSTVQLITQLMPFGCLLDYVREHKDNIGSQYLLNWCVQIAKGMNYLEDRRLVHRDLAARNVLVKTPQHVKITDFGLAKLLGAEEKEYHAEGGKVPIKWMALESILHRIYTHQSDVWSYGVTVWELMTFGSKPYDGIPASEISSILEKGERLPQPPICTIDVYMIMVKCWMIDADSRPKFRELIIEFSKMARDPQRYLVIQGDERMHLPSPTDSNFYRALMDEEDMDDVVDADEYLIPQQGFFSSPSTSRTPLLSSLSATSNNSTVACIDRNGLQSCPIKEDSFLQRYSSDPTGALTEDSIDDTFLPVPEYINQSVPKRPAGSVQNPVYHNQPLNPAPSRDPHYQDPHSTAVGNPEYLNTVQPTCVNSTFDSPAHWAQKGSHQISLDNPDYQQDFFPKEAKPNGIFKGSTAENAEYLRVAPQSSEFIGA

[10] = biological target: Tyrosine-protein kinase Lck (Homo sapiens, UniProt P06239); assay: Selectivity interaction (KinomeScan (DiscoverX)) EUB0000695a LCK; details: at 100 nM
Sequence of Tyrosine-protein kinase Lck (P06239 2-509 limits assumed): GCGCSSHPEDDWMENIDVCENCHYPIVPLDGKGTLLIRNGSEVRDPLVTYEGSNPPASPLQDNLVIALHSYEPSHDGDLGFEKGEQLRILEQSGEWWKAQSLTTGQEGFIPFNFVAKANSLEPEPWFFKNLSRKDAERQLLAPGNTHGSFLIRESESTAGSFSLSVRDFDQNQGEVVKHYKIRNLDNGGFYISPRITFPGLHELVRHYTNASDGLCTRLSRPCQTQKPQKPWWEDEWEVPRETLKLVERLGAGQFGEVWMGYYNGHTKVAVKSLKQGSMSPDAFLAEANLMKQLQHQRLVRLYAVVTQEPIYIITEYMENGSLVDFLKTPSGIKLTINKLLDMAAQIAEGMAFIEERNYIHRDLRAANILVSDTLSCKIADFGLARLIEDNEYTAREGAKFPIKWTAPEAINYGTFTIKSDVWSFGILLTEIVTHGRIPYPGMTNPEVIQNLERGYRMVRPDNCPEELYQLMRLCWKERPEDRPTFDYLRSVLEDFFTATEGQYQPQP

[11] = biological target: BDNF/NT-3 growth factors receptor (Homo sapiens) (UniProt Q16620); assay: Selectivity interaction (KinomeScan (DiscoverX)) EUB0000695a NTRK2; details: at 100 nM
Sequence of BDNF/NT-3 growth factors receptor (Homo sapiens) (Q16620 32-822 limits assumed): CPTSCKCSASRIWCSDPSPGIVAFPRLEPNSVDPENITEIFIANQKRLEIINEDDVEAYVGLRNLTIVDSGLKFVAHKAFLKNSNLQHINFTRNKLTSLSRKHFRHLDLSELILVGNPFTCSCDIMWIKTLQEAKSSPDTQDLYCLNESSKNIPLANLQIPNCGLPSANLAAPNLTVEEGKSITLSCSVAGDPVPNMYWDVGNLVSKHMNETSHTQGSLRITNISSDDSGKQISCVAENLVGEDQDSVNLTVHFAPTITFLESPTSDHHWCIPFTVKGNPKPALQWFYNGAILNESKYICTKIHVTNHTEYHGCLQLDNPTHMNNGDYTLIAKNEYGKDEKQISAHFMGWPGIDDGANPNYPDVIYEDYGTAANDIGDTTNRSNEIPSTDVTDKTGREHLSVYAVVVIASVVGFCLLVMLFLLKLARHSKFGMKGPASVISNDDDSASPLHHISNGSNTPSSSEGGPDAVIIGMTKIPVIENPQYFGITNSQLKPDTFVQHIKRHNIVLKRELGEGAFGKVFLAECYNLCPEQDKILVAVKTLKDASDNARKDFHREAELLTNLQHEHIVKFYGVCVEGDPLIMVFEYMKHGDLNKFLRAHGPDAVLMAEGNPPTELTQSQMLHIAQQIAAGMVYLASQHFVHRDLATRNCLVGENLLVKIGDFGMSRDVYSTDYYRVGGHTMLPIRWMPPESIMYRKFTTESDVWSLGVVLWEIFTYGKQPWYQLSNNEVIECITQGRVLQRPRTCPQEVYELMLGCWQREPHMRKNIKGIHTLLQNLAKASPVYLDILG

Sequence of Androgen receptor (Homo sapiens) (P10275 whole entry): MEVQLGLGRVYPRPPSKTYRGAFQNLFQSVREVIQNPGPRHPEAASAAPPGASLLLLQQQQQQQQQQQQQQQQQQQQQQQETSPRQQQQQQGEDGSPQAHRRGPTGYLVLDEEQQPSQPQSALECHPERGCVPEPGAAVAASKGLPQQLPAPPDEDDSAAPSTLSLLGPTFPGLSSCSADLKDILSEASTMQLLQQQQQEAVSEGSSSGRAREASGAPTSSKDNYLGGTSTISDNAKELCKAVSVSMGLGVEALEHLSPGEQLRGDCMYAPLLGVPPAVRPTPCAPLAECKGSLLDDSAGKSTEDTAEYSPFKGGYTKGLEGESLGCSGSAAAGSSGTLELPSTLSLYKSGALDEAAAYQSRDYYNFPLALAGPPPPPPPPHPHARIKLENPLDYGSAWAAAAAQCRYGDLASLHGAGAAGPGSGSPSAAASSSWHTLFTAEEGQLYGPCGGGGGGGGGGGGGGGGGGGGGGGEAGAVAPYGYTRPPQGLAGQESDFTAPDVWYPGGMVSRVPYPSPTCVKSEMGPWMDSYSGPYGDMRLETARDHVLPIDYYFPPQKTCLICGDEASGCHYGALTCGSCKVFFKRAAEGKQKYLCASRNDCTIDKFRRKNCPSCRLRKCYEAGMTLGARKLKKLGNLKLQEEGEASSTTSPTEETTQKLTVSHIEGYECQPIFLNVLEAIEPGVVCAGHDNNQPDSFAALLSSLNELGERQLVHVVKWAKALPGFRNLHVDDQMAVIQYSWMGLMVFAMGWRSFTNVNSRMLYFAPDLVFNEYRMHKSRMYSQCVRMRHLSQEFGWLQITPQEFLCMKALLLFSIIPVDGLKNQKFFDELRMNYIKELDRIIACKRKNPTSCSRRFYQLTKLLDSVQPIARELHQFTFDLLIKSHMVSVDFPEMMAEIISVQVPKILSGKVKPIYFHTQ
Sequence of Ribosomal protein S6 kinase beta-1 (P23443 whole entry, looked up): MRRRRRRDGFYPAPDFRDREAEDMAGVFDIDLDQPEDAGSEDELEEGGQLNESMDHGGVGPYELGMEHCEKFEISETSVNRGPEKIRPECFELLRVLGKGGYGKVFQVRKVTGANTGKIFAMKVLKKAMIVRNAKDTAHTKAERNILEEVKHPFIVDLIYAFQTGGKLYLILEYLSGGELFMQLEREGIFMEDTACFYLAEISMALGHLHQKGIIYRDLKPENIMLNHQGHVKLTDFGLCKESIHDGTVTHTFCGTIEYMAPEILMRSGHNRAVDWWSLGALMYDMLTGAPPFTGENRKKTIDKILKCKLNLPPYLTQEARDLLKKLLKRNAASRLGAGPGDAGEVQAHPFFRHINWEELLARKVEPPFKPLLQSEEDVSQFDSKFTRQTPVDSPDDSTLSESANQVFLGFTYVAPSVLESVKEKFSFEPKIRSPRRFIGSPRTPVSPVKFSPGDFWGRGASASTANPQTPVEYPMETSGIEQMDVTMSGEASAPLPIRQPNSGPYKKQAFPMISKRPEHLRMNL

SMILES: CC(=O)c1cc(-c2ccccc2OCC2CC2)c2ncccn12
- % of control [1]: 105%

SMILES: CN1Cc2nccc(-c3cn(C)nc3-c3ccc(F)cc3)c2C1=O
- % of inhibition [2]: -3%

SMILES: CNC(=O)Nc1ccc(-c2nc(N3CC4CCC(C3)O4)c3cnn(C4CCC5(CC4)OCCO5)c3n2)cc1
- % of control [3]: 85%
- % of control [4]: 83%

SMILES: COCC(=O)NC/C=C/c1ccc2ncnc(Nc3ccc(Oc4ccc(C)nc4)c(C)c3)c2c1 [CP-724714]
- % of control [5]: 85%

SMILES: C=CC(=O)Nc1ccc(C(=O)Nc2[nH]nc3c2CN(C(=O)N[C@H](CN(C)C)c2ccccc2)C3(C)C)cc1
- % of engagement [6]: -16.1%

SMILES: Cc1cc([C@@H](C)Nc2ccccc2C(=O)O)c2nc(N3CCOCC3)cc(=O)n2c1 [AZD-6482]
- % of control [7]: 89%

SMILES: Cc1cc(CN)cc(C)c1-c1ncn(C)c1-c1cncn1C
- % activity ([8]; at 1 µM): > 90%
- % activity ([8]; at 10 µM): > 80%

SMILES: COc1cc(N(C)c2ccnc3ccc(C(F)(F)F)cc23)cc(OC)c1OC
- % binding [9]: 97%

SMILES: Cc1cc(F)c(C(=O)Nc2cccc(-c3nncn3C(C)C)n2)cc1-n1cnc(C2CC2)c1
- % of control [10]: 86%
- % of control [11]: 65%
